Counter-ions that a name gives are not always drawn.

What is called melting point is the temperature, or range, at which the solid turns liquid. For orientation: inhibition means the share of the control response that was lost under treatment. Low values mean little suppression, high ones strong suppression. Usually % inhibition stands for how much of the control response was suppressed.

One data set relates to rat isolated left atrium. Description: Inhibition of the contracture with veratrine, rat isolated left atrium. To be noted: veratrine-induced contracture, 10^−7 M of test compound. The source says:
(§1) The compounds of the present invention of formula I and the therapeutically acceptable salts thereof have advantageous pharmacological properties. These derivatives are active in vitro, on cardiomyocytes, by inhibiting the diastolic contracture induced with veratrine, on rat isolated left atrium. They also abolish the diastolic contracture induced by the global ischemia of infused isolated guinea pig heart according to the Langendorff technique. These compounds are also active in vivo, in reinfusion ischemia in anesthetized rabbits: they inhibit the electrical disturbances in the ECG which are caused by reinfusion ischemia, without any appreciable hemodynamic effect, and are not cardiac depressants. Such compounds are useful preventively or curatively in the treatment of coronaropathies, cardiac and cerebral ischemia in all their forms and in the treatment of atherosclerosis, cardiac insufficiency, pain, migraine and epilepsy.
1) Inhibition of the contracture with veratrine, of rat isolated left atrium, was carried out according to the technique of Le Grand et al. (Naunyn—Schmiedeberg's Arch Pharmacol (1993) 348 p 184-190). The results are given in Table I. The percentages of inhibition are relative to a concentration of 10^−7 M of test compound.

Data set [1] relates to infused isolated guinea pig heart. Kind of data set: Inhibition of diastolic contracture induced by global ischemia of infused isolated guinea pig heart (Langendorff). To be noted: global ischemia 50 min, relative to vehicle group; for inhibition at 1 µM: Cavia porcellus, 50 min.
From the text: as §1
2) Inhibition of the diastolic contracture induced by the global ischemia of infused isolated guinea pig heart is carried out according to the technique described by Le Grand B. et al. (Am. J. Physiol. 269, H533-H540 (1995)). The guinea pig hearts collected are infused with a modified Krebs solution and, after stabilization for 20 minutes, the test compound dissolved in water or in aqueous 1% DMSO solution is added. After 15 minutes, global ischemia is induced by stopping the coronary infusion for 50 minutes, followed by reinfusion for 1 h. The inhibition of ischemic contracture, in the presence of the compounds of the present invention, is measured relative to that obtained in the vehicle group. The results are given in Table II by way of non-limiting example at a concentration of 1 μM.

The test system of a further data set is anesthetized rabbits. Description: Ischemia-reinfusion in anesthetized rabbits, oral route. The data set is classed as in vivo. To be noted: anesthetized rabbit.
From the text: as §1
The compounds of the present invention are also active via the oral route in the test of ischemia-reinfusion in anesthetized rabbits, according to the method of Verscheure et al. (J. Cardiovasc Pharmacol (1995) 25 p 126-133). The results for the compounds of Examples 6 and 14 are given in Table III below, by way of non-limiting example: […]

With `CN(C1=Nc2ccccc2CS1)C1CCN(CCCCCOCc2ccc(F)cc2)CC1.O=C(O)/C=C/C(=O)O`, the melting point turned out to be 167 °C.

Molecule `CN(C1=Nc2ccccc2CS1)C1CCN(CCCCCOCc2ccc(F)c(F)c2)CC1.O=C(O)/C=C/C(=O)O` came in with a melting point of 169 °C.

For the molecule `CN(C1=Nc2ccccc2CS1)C1CCN(CCCCOCc2ccc(F)c(F)c2)CC1.O=C(O)/C=C/C(=O)O`, the melting point was 170 °C.

On to `CN(C1=Nc2ccccc2CS1)C1CCN(CCCOCc2ccc(F)c(F)c2)CC1.O=C(O)/C=C/C(=O)O`, for which the melting point worked out at 168 °C.

As for `CN(C1=Nc2ccccc2CS1)C1CCN(CCCCOCCc2ccc(F)c(F)c2)CC1.O=C(O)/C=C/C(=O)O`, the melting point was determined as 163 °C.

`COc1ccc(COCCCCCN2CCC(N(C)C3=Nc4ccccc4CS3)CC2)cc1.O=C(O)/C=C/C(=O)O`: the melting point amounted to 163 °C.

The molecule `COc1ccc(COCCCCN2CCC(N(C)C3=Nc4ccccc4CS3)CC2)cc1.O=C(O)/C=C/C(=O)O` gave a melting point of 165 °C.

`COc1ccc(COCCCN2CCC(N(C)C3=Nc4ccccc4CS3)CC2)cc1.O=C(O)/C=C/C(=O)O` gave a melting point of 166 °C.

Consider `COc1ccc(CCOCCCCN2CCC(N(C)C3=Nc4ccccc4CS3)CC2)cc1.O=C(O)/C=C/C(=O)O`, for which the melting point was determined as 156 °C.

As for `COc1ccc(CCOCCCN2CCC(N(C)C3=Nc4ccccc4CS3)CC2)cc1.O=C(O)/C=C/C(=O)O`, the melting point came to 155 °C.

`COc1ccc(CCOCCN2CCC(N(C)C3=Nc4ccccc4CS3)CC2)cc1.O=C(O)/C=C/C(=O)O` showed a melting point of 152 to 153 °C.

Take `CN(C1=Nc2ccccc2CS1)C1CCN(CCOCc2ccccc2)CC1.O=C(O)/C=C/C(=O)O`: the melting point was 166 to 167 °C.

Molecule `CN(C1=Nc2ccccc2CS1)C1CCN(CCCOCCc2ccccc2)CC1.O=C(O)/C=C/C(=O)O` yielded a melting point of 166 °C.

On to `COc1ccc(CCOCC(O)CN2CCC(N(C)C3=Nc4ccccc4CS3)CC2)cc1.O=C(O)/C=C/C(=O)O` (stereo not drawn), for which the melting point lay in the range of 132 to 133 °C.

Take `Cc1ccc2c(c1)CSC(N(C)C1CCN(CCCOCCc3ccc(F)cc3)CC1)=N2.O=C(O)/C=C/C(=O)O`: the melting point fell in the range of 169 to 172 °C.

The molecule `CN(C1=Nc2ccc(Cl)cc2CS1)C1CCN(CCCOCCc2ccc(F)cc2)CC1.O=C(O)/C=C/C(=O)O` displayed a melting point of 167 to 170 °C.

In turn, `COc1cc2c(c(OC)c1OC)N=C(N(C)C1CCN(CCCOCCc3ccc(F)cc3)CC1)SC2.O=C(O)/C=C/C(=O)O` came in with a melting point of 68 °C.

`CN(C1=Nc2ccccc2CS1)C1CCN(CCCOCc2ccc(F)cc2)CC1.O=C(O)/C=C/C(=O)O` displayed a melting point of 163 to 164 °C.

`CN(C1=Nc2ccccc2CS1)C1CCN(CCOCc2ccc(F)cc2)CC1.O=C(O)/C=C/C(=O)O` came in with a melting point of 160 to 161 °C.

Consider `CN(C1=Nc2ccccc2CS1)C1CCN(CCCOCCCc2ccc(F)cc2)CC1.O=C(O)/C=C/C(=O)O`, for which the melting point stood at 176 °C.

Regarding `CN(C1=Nc2ccccc2CS1)C1CCN(CCCOCCc2ccc(F)cc2)CC1` (as salt: fumarate) [Example 6, N-Methyl-N-[1-[3-[2-(4-fluorophenyl)ethoxy]propyl]-4-piperidyl]-4H-3,1-benzothiazin-2-amine Hydrogen Fumarate], the melting point fell in the range of 163 to 164 °C.

For the molecule `CN(C1=Nc2ccccc2CS1)C1CCN(CCOCCc2ccc(F)cc2)CC1` (as salt: fumarate) [Example 9, N-Methyl-N-[1-[2-[2-(4-fluorophenyl)ethoxy]ethyl]-4-piperidyl]-4H-3,1-benzothiazin-2-amine], the melting point lay in the range of 145 to 146 °C.

`Fc1ccc(CCOCCCN2CCC(NC3=Nc4ccccc4CO3)CC2)cc1` (as salt: hydrochloride) (hydrate or solvate) [Example 30, N-[1-[3-[2-(4-Fluorophenyl)ethoxypropyl]-4-piperidyl]-4H-3,1-benzoxazin-2-amine Dihydrochloride Hydrate] displayed a melting point of 158 to 159 °C.

Turning to `CN(C1=Nc2ccccc2CS1)C1CCN(CCCCOc2ccc(F)c(F)c2)CC1` [Control, N-Methyl-N-[1-[4-(3,4-difluorophenoxy)butyl]-4-piperidyl)-4H-3,1-benzothiazin-2-amine], in the data set on rat isolated left atrium, the inhibition at 0.1 µM amounted to 26%. In data set [1], the inhibition at 1 µM turned out to be 48%. Besides, in the data set with anesthetized rabbits (0.63 mg/kg p.o.), the “% change in arterial pressure” value was 5%, the “% change in heart rate” value is 0%, the “% inhibition of over-increase of ST segment” value was 31% and the “Number of animals with reinfusion arrhythmia” value (from here on “Number of animals”) is listed as 1/5.

`CN(C1=Nc2ccccc2CS1)C1CCN(CCCCOCCc2ccc(F)cc2)CC1.O=C(O)/C=C/C(=O)O` [Example 5, N-Methyl-N-[1-[4-[2-(4-fluorophenyl)ethoxy]butyl]-4-piperidyl]-4H-3,1-benzothiazin-2-amine Hydrogen Fumarate] yielded a melting point of 173 to 174 °C. Also, testing at 0.1 µM in the data set on rat isolated left atrium gave an inhibition of 63%.

In the data set on rat isolated left atrium, `CN(C1=Nc2ccccc2CS1)C1CCN(CCCOCCc2ccc(F)cc2)CC1` [Example 6, N-Methyl-N-[1-[3-[2-(4-fluorophenyl)ethoxy]propyl]-4-piperidyl]-4H-3,1-benzothiazin-2-amine Hydrogen Fumarate] displayed an inhibition at 0.1 µM of 41%. Besides, at 1 µM the inhibition in data set [1] was 79%. Further, in the data set with anesthetized rabbits (0.63 mg/kg p.o.), the “% change in arterial pressure” value is listed as 0%, the “% change in heart rate” value is listed as −7%, the “% inhibition of over-increase of ST segment” value is listed as 42% and the “Number of animals” value is listed as 3/5.

In the case of `CN(C1=Nc2ccccc2CS1)C1CCN(CCCOCCc2ccc(F)c(F)c2)CC1.O=C(O)/C=C/C(=O)O` [Example 14, N-Methyl-N-[1-[3-[2-(3,4-difluorophenyl)ethoxy]propyl]-4-piperidyl]-4H-3,1-benzothiazin-2-amine Hydrogen Fumarate], the melting point was found to be 162 °C. For the same molecule, in the data set with rat isolated left atrium, the inhibition at 0.1 µM was found to be 32%. The molecule further came in with an inhibition at 1 µM in data set [1] of 77%. Moreover, in the data set with anesthetized rabbits (0.63 mg/kg p.o.), the “% change in arterial pressure” value was determined as 3%, the “% change in heart rate” value is given as −5%, the “% inhibition of over-increase of ST segment” value is 83% and the “Number of animals” value is listed as 0/5.

For the molecule `CN(c1nc2ccccc2s1)C1CCN(CCCCOc2ccc(F)cc2)CC1` [Example R56865, N-(1-(4-(4-fluorophenoxy)butyl)4-piperidyl)-N-methyl-2-benzothiazolamine], the inhibition at 0.1 µM in the data set with rat isolated left atrium was determined as 32%. For the same molecule, in the data set with anesthetized rabbits (2.5 mg/kg p.o.), the “% change in arterial pressure” value was found to be 27%, the “% change in heart rate” value is on record as 0%, the “% inhibition of over-increase of ST segment” value was determined as 0% and the “Number of animals” value was 2/5. Besides, in the data set on anesthetized rabbits (10 mg/kg p.o.), the “% change in arterial pressure” value amounted to 15%, the “% change in heart rate” value was 5%, the “% inhibition of over-increase of ST segment” value is given as 100% and the “Number of animals” value is 0/5.

Turning to `CS(=O)(=O)c1cc(C(=O)NC(=N)N)ccc1N1CCCCC1.Cl` [HOE 694, 3-(Methylsulfonyl-4-piperidinobenzoyl)guanidine hydrochloride, reference compound], in data set [1], the “% diastolic contracture inhibition at 1 μM” value amounted to 17%.

Consider `CN(c1nc2ccccc2s1)C1CCN(CC(O)COc2ccc(F)cc2)CC1` (stereo not drawn) [Sabeluzole], for which, in the data set with rat isolated left atrium, the inhibition at 0.1 µM was 5%. Further, in the data set on anesthetized rabbits (10 mg/kg p.o.), the “% change in arterial pressure” value is reported as 12%, the “% change in heart rate” value stood at 0%, the “% inhibition of over-increase of ST segment” value was 34% and the “Number of animals” value is reported as 3/4.

In the case of “N-Methyl-N-[1-[2-hydroxy-3-(4-fluorophenylmethoxy)-propyl]-4-piperidyl]-4H-3,1-benzothiazin-2-amine Hemifumarate [Example 23]”, in the data set on rat isolated left atrium, the “% inhibition at 10^−7 M” value worked out at 35%.

These data come from US6531469B1, “Substituted 1-(4-piperidyl)-3-(aryl) isothioureas their preparation and their therapeutic application” (Pierre Fabre Medicament, priority 1999, dated 2003).
